Results taken from patent publication US20240083857A1, “2-Methyl-Quinazolines” (Bayer Pharma Aktiengesellschaft, priority 2017, published 2024).
pIC50: −log10 of the molar value.

What was measured:
[1] = target: human SOS1 (nucleotide exchange of K-Ras^G12C) (Homo sapiens, UniProt Q07889); assay: Biochemical assay 2: K-Ras^G12C activation assay by hSOS1 at high GTP concentration (HTRF); details: high GTP; read-out: Assay 2 (KRAS-Activation by SOS high GTP) activity expressed as IC50
[2] = target: Epidermal Growth Factor Receptor (EGFR) (Homo sapiens (Human), UniProt P00533); assay: EGFR kinase assay (TR-FRET); assay type: biochemical; details: values given in μM; read-out: EGFR kinase inhibition IC50
Chain of Epidermal Growth Factor Receptor (EGFR) (P00533 25-1210): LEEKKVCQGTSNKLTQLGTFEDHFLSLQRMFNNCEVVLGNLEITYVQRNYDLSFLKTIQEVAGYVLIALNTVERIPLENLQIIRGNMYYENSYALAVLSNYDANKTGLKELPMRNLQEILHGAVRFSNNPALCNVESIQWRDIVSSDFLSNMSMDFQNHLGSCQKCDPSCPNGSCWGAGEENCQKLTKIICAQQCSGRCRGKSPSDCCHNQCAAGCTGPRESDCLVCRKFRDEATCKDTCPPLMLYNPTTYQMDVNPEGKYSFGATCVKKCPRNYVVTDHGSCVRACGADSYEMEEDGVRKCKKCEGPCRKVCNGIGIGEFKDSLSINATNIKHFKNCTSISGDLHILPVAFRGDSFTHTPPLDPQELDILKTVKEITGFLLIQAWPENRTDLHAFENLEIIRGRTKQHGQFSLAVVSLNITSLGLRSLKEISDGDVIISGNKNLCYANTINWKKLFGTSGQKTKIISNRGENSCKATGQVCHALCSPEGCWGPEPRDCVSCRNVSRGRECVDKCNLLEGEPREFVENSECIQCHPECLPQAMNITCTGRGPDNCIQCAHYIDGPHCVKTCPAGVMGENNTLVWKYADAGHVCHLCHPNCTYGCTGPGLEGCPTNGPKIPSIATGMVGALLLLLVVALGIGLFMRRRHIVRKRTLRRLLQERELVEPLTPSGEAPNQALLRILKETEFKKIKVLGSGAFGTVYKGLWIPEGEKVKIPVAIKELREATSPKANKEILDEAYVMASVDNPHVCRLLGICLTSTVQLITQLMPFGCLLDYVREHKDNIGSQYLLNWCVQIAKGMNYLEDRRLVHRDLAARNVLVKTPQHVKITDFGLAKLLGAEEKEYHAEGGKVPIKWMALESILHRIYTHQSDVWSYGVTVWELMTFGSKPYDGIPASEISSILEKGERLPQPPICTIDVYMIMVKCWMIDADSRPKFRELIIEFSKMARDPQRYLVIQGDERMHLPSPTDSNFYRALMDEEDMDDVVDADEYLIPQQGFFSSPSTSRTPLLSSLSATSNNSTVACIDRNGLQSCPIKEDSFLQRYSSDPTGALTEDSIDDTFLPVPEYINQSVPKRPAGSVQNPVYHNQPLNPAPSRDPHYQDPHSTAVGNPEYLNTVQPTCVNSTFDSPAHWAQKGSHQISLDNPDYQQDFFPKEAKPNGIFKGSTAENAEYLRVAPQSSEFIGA
Method in brief: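 Read-out is the 665/620 nm HTRF ratio, from a Tb-cryptate anti-phosphotyrosine antibody and streptavidin-XL665 bound to phosphorylated biotin-peptide substrate. The enzyme, A431-derived EGFR (~3 U/ml), was given 15 min compound pre-binding at 22° C in Hepes pH 7.0 with Mg2+/Mn2+ before reaction.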

COc1cc2nc(C)nc(NC(C)c3ccc(-c4ccccc4CN4CCOCC4)s3)c2cc1OC (stereo not drawn) [Example 311, 6,7-dimethoxy-2-methyl-N-[1-{5-[2-(morpholin-4-ylmethyl)phenyl]thiophen-2-yl}ethyl]quinazolin-4-amine]
pIC50 [1]: 6.29
IC50 [2]: > 20 µM

COc1cc2nc(C)nc(NC(C)c3ccc(-c4ccccc4CN4CC(O)C4)s3)c2cc1OC (stereo not drawn) [Example 312, 1-[2-(5-{1-[(6,7-dimethoxy-2-methylquinazolin-4-yl)amino]ethyl}thiophen-2-yl)benzyl]azetidin-3-ol]
pIC50 [1]: 7.18
IC50 [2]: > 20 µM

COc1cc2nc(C)nc(NC(C)c3ccc(-c4ccccc4CN4CC5(CNC(=O)N5)C4)s3)c2cc1OC (stereo not drawn) [Example 313, 2-[2-(5-{1-[(6,7-dimethoxy-2-methylquinazolin-4-yl)amino]ethyl}thiophen-2-yl)benzyl]-2,5,7-triazaspiro[3.4]octan-6-one]
pIC50 [1]: 6.79
IC50 [2]: > 20 µM

COc1cc2nc(C)nc(NC(C)c3ccc(-c4ccc(F)cc4CNC(=O)[C@@H]4CCCN4)s3)c2cc1OC (stereo partly drawn) [Example 314, N-[2-(5-{1-[(6,7-dimethoxy-2-methylquinazolin-4-yl)amino]ethyl}thiophen-2-yl)-5-fluorobenzyl]-L-prolinamide]
pIC50 [1]: 7.06
IC50 [2]: > 20 µM

COc1cc2nc(C)nc(NC(C)c3ccc(-c4ccccc4CNCC(F)F)s3)c2cc1OC (stereo not drawn) [Example 315, N-{1-[5-(2-{[(2,2-difluoroethyl)amino]methyl}phenyl)thiophen-2-yl]ethyl}-6,7-dimethoxy-2-methylquinazolin-4-amine]
pIC50 [1]: 6.01
IC50 [2]: > 20 µM

COc1cc2nc(C)nc(NC(C)c3ccc(-c4ccccc4CN4CCC4)s3)c2cc1OC (stereo not drawn) [Example 317, N-[1-{5-[2-(azetidin-1-ylmethyl)phenyl]thiophen-2-yl}ethyl]-6,7-dimethoxy-2-methylquinazolin-4-amine]
pIC50 [1]: 7.20
IC50 [2]: > 20 µM

COc1cc2nc(C)nc(NC(C)c3ccc(-c4ccccc4CN4CC[C@H]4CO)s3)c2cc1OC (stereo partly drawn) [Example 318, {1-[(2S)-(5-{1-[(6,7-dimethoxy-2-methylquinazolin-4-yl)amino]ethyl}thiophen-2-yl)benzyl]azetidin-2-yl}methanol]
pIC50 [1]: 6.78
IC50 [2]: > 20 µM

COc1cc2nc(C)nc(NC(C)c3ccc(-c4ccccc4CN4CC(N(C)C)C4)s3)c2cc1OC (stereo not drawn) [Example 319, N-{1-[5-(2-{[3-(dimethylamino)azetidin-1-yl]methyl}phenyl)thiophen-2-yl]ethyl}-6,7-dimethoxy-2-methylquinazolin-4-amine]
pIC50 [1]: 6.92
IC50 [2]: > 20 µM

COc1cc2nc(C)nc(NC(C)c3ccc(-c4ccccc4CN4CC(F)(F)C4)s3)c2cc1OC (stereo not drawn) [Example 320, N-[1-(5-{2-[(3,3-difluoroazetidin-1-yl)methyl]phenyl}thiophen-2-yl)ethyl]-6,7-dimethoxy-2-methylquinazolin-4-amine]
pIC50 [1]: 5.89
IC50 [2]: > 20 µM

COc1cc2nc(C)nc(NC(C)c3ccc(-c4ccccc4CN(C)CC(F)(F)F)s3)c2cc1OC (stereo not drawn) [Example 321, 6,7-di methoxy-2-methyl-N-{1-[5-(2-{[methyl(2,2,2-trifluoroethyl)amino]methyl}phenyl)thiophen-2-yl]ethyl}quinazolin-4-amine]
pIC50 [1]: 5.20
IC50 [2]: > 20 µM

COc1cc2nc(C)nc(NC(C)c3ccc(-c4ccccc4CN4CC(F)C4)s3)c2cc1OC (stereo not drawn) [Example 322, N-[1-(5-{2-[(3-fluoroazetidin-1-yl)methyl]phenyl}thiophen-2-yl)ethyl]-6,7-dimethoxy-2-methylquinazolin-4-amine]
pIC50 [1]: 6.61
IC50 [2]: > 20 µM

COc1cc2nc(C)nc(NC(C)c3ccc(-c4ccc(Cl)cc4CN(C)C)s3)c2cc1OC (stereo not drawn) [Example 323, N-[1-(5-{4-chloro-2-[(dimethylamino)methyl]phenyl}thiophen-2-yl)ethyl]-6,7-dimethoxy-2-methylquinazolin-4-amine]
pIC50 [1]: 7.14
IC50 [2]: > 20 µM
